One experiment deals with T1, PAR2 and Akt (Homo sapiens, UniProt P31749).
T1 construct: FLAG; expressed in transfected cells; host or cells: HEK293
Briefly: PAR2-Akt association, immunoprecipitation in HEK293 cells transfected with Par2 and SLIGKV activated. The class given is cell-based. The note with it: HEK 293 cells, flag-hPar2, SLIGKV 200 μM; 150 μM, 1 hr prior to activation; FIG. 11. The method, then:
HEK293 cells were transiently transfected with Par2 followed by SLIGKV PAR2 activation in the presence and absence of PAR4 c(4-4) at 150 μM. IP of cell lysates following different time of activation was carried out using anti PAR2 abs. Detection of Akt was performed by anti Akt abs. β-actin serves as a control gene for loading.
Briefly, HEK 293 cells were transfected with 0.8 μg flag-hPar2 and serum starved overnight. PAR(4-4) in concentration of 150 μM was applied onto the cell monolayer for 1 hr prior to PAR2 activation (by the peptide SLIGKV—200 μM) for the indicated time periods (overall transfection period is 48 hrs).
The cells (HEK 293) were solubilized and lysed and protein cell lysates (400 μg) were used for immunoprecipitation analysis, as described in Example 4.

The subject of the next experiment is RKO/hPar4 tumors. Briefly: Pre-formed RKO/hPar4 tumors in nude mice. The class given is in vivo. The following applies: injection s.c. near tumor started 3 weeks post inoculation (~1 cm tumors), 5 mg/kg. As for the experimental part: Tumors generated by the RKO/Par4 clone/s (1×10^6 cells, subcutaneously). Injections of the inhibitor Pc(4-4) have started 3 weeks post cell inoculation (5 mg/kg, every other day). FIG. 12B—levels of Par4 in stable clone/s of RKO cells. Error bars show s.d.; *** P<0.001. FIG. 12C—pre-formed tumors. Mice bearing tumors formed (˜1 cm) prior to the Pc(4-4) injection. FIG. 12D tumor volume (cm3). Tumors generated throughout the experimental period versus injections of Pc(4-4) initiated 3 weeks post cell inoculation. Each treatment group contained 7 mice. This is a representative of three times performed experiments. Error bars show s.d.; ** P<0.01.
In this experimental design, RKO/hPar4 clone/s (1×10^6 cells) were implanted in nude mice (Par4 levels in the clones) (FIG. 12A-12D). Tumors were slowly formed (during 3 weeks). At the time tumors were distinctly observed (˜1 cm length, FIG. 12C), the Pc(4-4) inhibitor was injected s.c. in the vicinity of the tumor site (3×week; 5 mg/kg). At the time the experiment was terminated large RKO/hPar4 tumors were observed. […] Activation of PAR4 leads to the phosphorylation of EGFR. AYPGKF activation of PAR4 leads to pTyr-EGFR. This was shown by co-transfection of HEK293 cells with hPar4 and egfr followed by AYPGKF PAR4 activation. Western blot detection of EGFR Tyr (Y)-phosphorylation (pY-EGFR), was carried-out by anti phospho-Tyr antibodies (FIG. 13A). […]

A further experiment concerns pY-EGFR. Nature of the experiment: PAR4 induced EGFR tyrosine phosphorylation, HEK293 cells co-transfected with flg-Par4 and gfp-egfr (Western blot). The class given is cell-based, human. The note with it: HEK293 cells co-transfected with hPar4 and egfr; AYPGKF 200 μM; 100 μM; FIG. 13B. As for the experimental part:
FIG. 13A—Activation of PAR4 induces phosphorylation of EGFR. HEK293 cells were co-transfected with 0.4 μg of wt flg-Par4 and 0.8 μg of gfp-egfr. Cells were serum starved over night following AYPGKF PAR4 activation (200 μM) for 5-45 min. Detection by Western blot analyses of pY-EGFR and EGFR was performed using either anti-phospho tyrosine or anti EGFR antibodies respectively. PAR4 activation induces EGFR tyrosine phosphorylation within 15 min. FIG. 13B—Pc(4-4) inhibits EGFR phosphorylation. HEK293 cells were co-transfected with 0.8 μg of wt flg-Par4 and 1 μg of gfp-egfr. Cells were serum starved over night following AYPGKF PAR4 activation (200 μM) for 5-45 min in the presence and absence of PAR4 c(4-4) (100 μM). Detection by Western blot analyses of pEGFR and EGFR was performed using either anti-phospho tyrosine or anti EGFR antibodies (1:1000 dilution) respectively. […] FIG. 13C—PAR4 mutants F347L and D349A abolish pTyr-EGFR. HEK293 cells were transiently co-transfected with either flg-Par4 or flg-Par4D349A or flg-hPar4F347L with egfr1 plasmid. Cells were serum starved over night following AYPGKF PAR4 activation (200 μM) for 5-45 min. Detection by Western blot analyses of pY-EGFR and EGFR was performed using either anti-phospho tyrosine or anti-EGFR antibodies respectively. In the presence of flg-Par4 potent pTyr-EGFR1 is observed within 15′ and 30′ AYPGKF activation. […]

Entries after “also recorded” stand apart in the source; their conditions may differ. Numbered stars: 1 amine (or outer) side, 2 acyl side, 3 side chain; on linkers, the order of the positions; unused ones are H or OH. Bridge positions count the residues as written; N and C are the ends. Square brackets hold non-standard residues; d marks the D form. Ends that are not written are not given here. GlyBU(C4) = Gly building unit (N-alpha-functionalized Gly) carrying a C4 alkyl chain (n = m = 4), bridged through a urea group; CO = O=C([*:1])[*:2]

T1 sequence (P31749 whole entry): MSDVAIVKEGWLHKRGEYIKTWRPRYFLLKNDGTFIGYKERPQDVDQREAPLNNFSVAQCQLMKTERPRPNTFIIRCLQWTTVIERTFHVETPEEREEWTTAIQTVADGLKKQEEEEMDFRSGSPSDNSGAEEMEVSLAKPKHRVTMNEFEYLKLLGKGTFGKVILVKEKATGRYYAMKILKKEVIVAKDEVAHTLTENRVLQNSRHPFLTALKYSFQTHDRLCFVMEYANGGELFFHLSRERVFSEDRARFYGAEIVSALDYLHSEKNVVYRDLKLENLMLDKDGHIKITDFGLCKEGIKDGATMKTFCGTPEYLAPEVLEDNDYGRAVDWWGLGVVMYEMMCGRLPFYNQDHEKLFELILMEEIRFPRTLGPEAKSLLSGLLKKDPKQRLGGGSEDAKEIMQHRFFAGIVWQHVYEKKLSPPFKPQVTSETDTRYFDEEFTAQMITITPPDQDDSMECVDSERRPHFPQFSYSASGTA

As for “Pc(4-4): backbone cyclic analog of Formula I, m=n=4, ring size 30 atoms (S[GlyBU(C4)]EFRDK[GlyBU(C4)]; bridge 2-8 via CO; not fully specified; printed as SZ1EFRDKX3)”, the “inhibition of PAR2-AKT association (IP)” value with PAR2 and Akt is listed as “efficiently inhibited”. Further, in the experiment on RKO/hPar4 tumors, the “size of pre-formed tumors” value was “distinctly smaller tumors; also recorded: inhibits”. Further, the “inhibition of PAR4 induced pY-EGFR” value in the experiment with pY-EGFR is “potent inhibition; also recorded: potently inhibited”.

(Values after patent publication US20230331781A1, “PAR4 DERIVED PEPTIDES, ANALOGS AND USES THEREOF” (Yissum Research Development Company of the Hebrew …, priority 2019, published 2023).)
